Experimental data: PubChem BioAssay (NCI)
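Following 48 hours of exposure in 96-well plates, responses at five concentrations were used to interpolate endpoints linearly. GI50: concentration for 50% inhibition of growth. TGI marks complete inhibition of growth.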

Key:
Assay in all cases: NCI-60 cell line screen, 48 h
[1] = tested on: A498 renal
[2] = tested on: ACHN renal
[3] = tested on: MALME-3M melanoma
[4] = tested on: NCI-H23 lung
[5] = tested on: NCI-H522 lung
[6] = tested on: OVCAR-3 ovarian
[7] = tested on: SK-MEL-5 melanoma
[8] = tested on: SR leukemia
[9] = tested on: UACC-257 melanoma
[10] = tested on: PC-3 prostate

Row | Compound | GI50 [1] | GI50 [2] | TGI [2] | GI50 [3] | GI50 [4] | TGI [4] | TGI [5] | TGI [6] | GI50 [7] | GI50 [8] | TGI [8] | GI50 [9] | TGI [9] | TGI [1] | TGI [3] | TGI [7] | TGI [10] | GI50 [5] | GI50 [6] | GI50 [10]
1 | COc1cc2c(c(OC)c1OC)-c1ccc(SC)c(=O)cc1C(CO)C2 (centres undefined) | < 0.01 µM | < 0.01 µM | > 100 µM | < 0.01 µM | < 0.01 µM | < 0.01 µM | 0.271 µM | 0.449 µM | < 0.01 µM | < 0.01 µM | 23.8 µM | 3.45 µM | > 100 µM | – | – | – | – | – | – | –
2 | Nc1ccnc(=O)[nH]1 | – | – | > 100 µM | – | – | – | > 100 µM | > 100 µM | – | – | – | – | > 100 µM | > 100 µM | > 100 µM | > 100 µM | – | – | – | –
3 | CC(=O)CC(=O)OC1CC(C)CCC1C(C)C (centres undefined) | – | – | > 100 µM | – | – | > 100 µM | > 100 µM | > 100 µM | – | – | – | – | > 100 µM | > 100 µM | > 100 µM | > 100 µM | – | – | – | –
4 | OC(c1ccccc1)(c1ccccc1)c1ccncc1 | – | – | > 100 µM | – | – | > 100 µM | > 100 µM | > 100 µM | – | – | > 100 µM | – | > 100 µM | – | > 100 µM | > 100 µM | – | – | – | –
5 | CCc1cc(C(=O)OC)cn1C(=N)c1ccc(Cl)cc1 | – | – | > 100 µM | – | – | > 100 µM | – | > 100 µM | – | – | – | – | > 100 µM | > 100 µM | > 100 µM | > 100 µM | – | – | – | –
6 | COc1ccc(C2=CC(c3ccc4c(c3)OCO4)c3c(c4ccccc4oc3=O)O2)cc1OC (centres undefined) | – | – | > 100 µM | – | – | > 100 µM | – | – | – | – | – | – | > 100 µM | > 100 µM | > 100 µM | > 100 µM | > 100 µM | – | – | –
7 | Cn1cc(C(=O)NCCC(=N)N)cc1NC(=O)C1=[N+](C)C=C(NC(=O)c2cccc(C(=O)NC3=CC(C(=O)Nc4cc(C(=O)NCCC(=N)N)cn4C)=[N+](C)C3)c2)C1 | – | – | > 100 µM | – | – | > 100 µM | > 100 µM | > 100 µM | – | – | > 100 µM | – | > 100 µM | > 100 µM | > 100 µM | > 100 µM | – | – | – | –
8 | CCOC(=O)N1CCN(C=S)CC1 | – | – | > 100 µM | – | – | > 100 µM | > 100 µM | > 100 µM | – | – | > 100 µM | – | > 100 µM | > 100 µM | > 100 µM | > 100 µM | – | – | – | –
9 | CCCCNc1nc(C#N)c(N)s1 | – | – | > 100 µM | – | – | > 100 µM | > 100 µM | > 100 µM | – | – | > 100 µM | – | > 100 µM | – | > 100 µM | – | – | – | – | –
10 | COc1cc(/C=C2/C(=O)N(C(=O)OCC(C)C)C(Cc3cc(OC)c(OC)c(C)c3OC)C(=O)N2Cc2ccccc2)c(OC)c(C)c1OC (centres undefined) | – | – | > 100 µM | – | – | > 100 µM | > 100 µM | > 100 µM | – | – | > 100 µM | – | > 100 µM | > 100 µM | > 100 µM | > 100 µM | – | – | – | –
11 | CCN(CC)c1c(C(=O)/C=C/c2ccc(OC)cc2)c(-c2ccccc2)nn(C)c1=O | – | – | > 100 µM | – | – | 34.6 µM | – | – | – | – | 44.7 µM | – | 60.8 µM | 46.8 µM | 35.1 µM | 21.5 µM | – | – | – | –
12 | COc1cc(C(=O)O[C@H](C(=O)NCCCCCNC(=O)[C@@H](OC(=O)c2cc(OC)cc3c(C)cccc23)[C@]2(C)CO2)[C@]2(C)CO2)c2cccc(C)c2c1 | 1.33 µM | < 0.0143 µM | < 0.0338 µM | – | 0.179 µM | 0.665 µM | > 22.3 µM | 10.6 µM | 0.166 µM | – | – | 2.03 µM | 5.33 µM | 5.25 µM | – | 0.501 µM | > 41.1 µM | 0.565 µM | 1.61 µM | 0.997 µM
13 | COC1CC(OS(=O)(=O)c2ccc([N+](=O)[O-])cc2)C(OC(=O)c2ccccc2)C(C)O1 (centres undefined) | – | – | > 100 µM | – | – | > 100 µM | > 100 µM | > 100 µM | – | – | > 100 µM | – | > 100 µM | > 100 µM | > 100 µM | > 100 µM | – | – | – | –
14 | COc1cc(NC(C)CCCNC2CN3CCC2CC3)c2ncccc2c1 (centres undefined) | 2.05 µM | 14.7 µM | 29.3 µM | 10 µM | 13.8 µM | 29.6 µM | – | 11.4 µM | 2.23 µM | – | – | 2.39 µM | 5.74 µM | 16.8 µM | 24.3 µM | 5.6 µM | 35.1 µM | – | 3.22 µM | 12.5 µM
15 | CN(CCCn1c2c(c3ccccc3c1=O)C(=O)c1ccccc1-2)CCCn1c2c(c3ccccc3c1=O)C(=O)c1ccccc1-2 | 11.4 µM | – | – | 1.08 µM | 0.249 µM | 5.25 µM | > 100 µM | – | 6.57 µM | – | – | 21.6 µM | > 73.2 µM | 74.3 µM | 28.4 µM | > 100 µM | – | – | – | 0.29 µM
